Test results taken from patent US10456397B2, “Covalent inhibitors of CDK-7” (Newave Pharmaceutical Inc., priority 2015, dated 2019).
Where “and” joins values, the source holds several entries; their conditions need not be identical. Equal values may be shown once. Read-outs that look alike come from different tables or passages of the source.

Assays:
CDK7/cyclinH1/MNAT1 = CDK7/cyclinH1/MNAT1 (Homo sapiens, UniProt P50613); assay: Inhibition of CDK-7 enzymatic activity (p33 ATP radiometric assay)
Procedure: Material: CDK7/cyclinH1/MNAT1 (Accession number for CDK7; NP 001790, for cyclinH1; NP 001230, for MNAT1; NP 002422.1) Recombinant Human Full-Length protein, Histidine-tagged CDK7 (MW=43.2 kDa), Histidine-tagged cyclin H1 (MW=42.6 kDa), Histidine-tagged MNAT1 (MW=40.5 kDa), were expressed in insect cells. […] Activity was determined with a final protein concentration at 3.33 μg/mL. Enzyme was stored at a concentration of 0.42 mg/ml in 50 rnM Tris (pH 7.5), 150 mM NaCl, 0.5 mM EDTA, 0.02% Triton X-100, 2 mM DTT, 50% Glycerol.
For CDK7 activity assay, p33 ATP tracers were incubated with purified recombinant specific combination of purified CDK kinases, cyclins and substrates to monitor the enzyme activity. In these assays, individual reactions were carried out in specific conditions describe below with reaction buffer: 20 mM HEPES (pH 7.5), 10 mM MgCl2, 1 mM EGTA, 0.02% Brij 35, 0.02 mg/ml BSA, 0.1 mM Na3VO4, 2 mM DTT. An equal volume of 25% TCA was added to stop the reaction and precipitate the labeled peptides. […] The amount of incorporated isotope was measured using a Perkin Elmer TopCount plate reader. […] IC50 was calculated using Prism software with sigmoidal dose-response curve fitting. […] Reaction was incubated for 2 hours at room temperature and conversion rate of ATP was measured to be 5.5%. […]

DMS 114 = assay: In vitro anti-proliferation assay (ATPlite); format: cell-based; conditions: SCLC cell line DMS 114, about 72 hours, read-out: anti-proliferative IC50
Procedure: (§1) Cell antiproliferation is assayed by PerkinElmer ATPlite™ Luminescence Assay System. Briefly, the various test cancer cell lines are plated at a density of about 1×10^4 cells per well in Costar 96-well plates, and are incubated with different concentrations of compounds for about 72 hours in medium supplemented with 5% FBS. One lyophilized substrate solution vial is then reconstituted by adding 5 mL of substrate buffer solution, and is agitated gently until the solution is homogeneous. About 50 μL of mammalian cell lysis solution is added to 100 μL of cell suspension per well of a microplate, and the plate is shaken for about five minutes in an orbital shaker at ˜700 rpm. This procedure is used to lyse the cells and to stabilize the ATP. Next, 50 μL substrate solution is added to the wells and microplate is shaken for five minutes in an orbital shaker at ˜700 rpm. Finally, the luminescence is measured by a PerkinElmer TopCount® Microplate Scintillation Counter.
(§2) As shown in the following table, the CY-16-1 has potent anticancer activity in small cell lung cancer (SCLC) cell lines. Cisplatin, the first line treatment of SCLC, was used as a reference drug in this assay: […]

NCI-H69 = assay: In vitro anti-proliferation assay (ATPlite); format: cell-based; conditions: SCLC cell line NCI-H69, about 72 hours, read-out: anti-proliferative IC50
Procedure: as §1, §2

NCI-H209 = assay: In vitro anti-proliferation assay (ATPlite); format: cell-based; conditions: SCLC cell line NCI-H209, about 72 hours, read-out: anti-proliferative IC50
Procedure: as §1, §2

NCI-H82 = assay: In vitro anti-proliferation assay (ATPlite); format: cell-based; conditions: SCLC cell line NCI-H82, about 72 hours, read-out: anti-proliferative IC50
Procedure: as §1, §2

NCI-H446 = assay: In vitro anti-proliferation assay (ATPlite); format: cell-based; conditions: SCLC cell line NCI-H446, about 72 hours, read-out: anti-proliferative IC50
Procedure: as §1, §2

CDK7/CycH/MAT1 = CDK7/CycH/MAT1 (Homo sapiens, UniProt P50613); assay: In vitro irreversible dialysis assay; format: biochemical; conditions: 700 nM compound pre-incubated 2 h with 50 nM enzyme, dialyzed 24 h at RT
Procedure: 700 nM CY-16-1 compound was pre-incubated with 50 nM CDK7/CycH/MAT1 enzyme for 2 h in a buffer comprising: 100 mM HEPES pH7.5, 0.1% BSA, 5 mM MgCl2, 1 mM DTT, 0.01% Triton X-100 and dialyzed at RT against the same buffer for a total time of 24 h (3 changes of the dialysis buffer, nominal cumulative dialysis factor: 30,000). Control samples included: DMSO+50 nM CDK7 dialyzed in the identical manner Un-dialyzed samples with compound were assembled and incubated for 24 h at RT. Following dialysis, the CDK7 activity was measured in real-time format in the presence of 100 uM ATP and 1 uM substrate peptide. Initial velocity was determined in the samples.

CDK7 = molecular target: T1, CDK7 (Homo sapiens, UniProt P50613); assay: KINOMEscan CDK7 binding constant (Kd) determination; conditions: KINOMEscan competition binding, 11-point 3-fold dilution
T1 construct: made in house; host or cells: E. coli BL21-derived host (T7 phage) or HEK-293
T1 sequence (P50613 whole entry): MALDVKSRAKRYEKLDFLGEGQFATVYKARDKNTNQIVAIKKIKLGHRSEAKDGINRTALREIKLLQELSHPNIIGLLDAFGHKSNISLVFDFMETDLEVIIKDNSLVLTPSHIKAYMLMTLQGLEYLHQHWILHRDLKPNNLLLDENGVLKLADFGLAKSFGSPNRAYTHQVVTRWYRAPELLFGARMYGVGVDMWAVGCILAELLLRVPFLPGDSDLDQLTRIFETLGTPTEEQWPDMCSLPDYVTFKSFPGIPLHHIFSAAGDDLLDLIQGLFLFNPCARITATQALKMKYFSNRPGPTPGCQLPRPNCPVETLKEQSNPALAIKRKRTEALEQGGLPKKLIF
Procedure: The assay is performed by combining three components: DNA-tagged kinase; immobilized ligand; and a test compound. The ability of the test compound to compete with the immobilized ligand is measured via quantitative PCR of the DNA tag.
The kinase-tagged T7 phage strains were prepared in an E. coli host derived from the BL21 strain. E. coli were grown to log-phase and infected with T7 phage and incubated with shaking at 32° C. until lysis. The lysates were centrifuged and filtered to remove cell debris. The remaining kinases were produced in HEK-293 cells and subsequently tagged with DNA for qPCR detection. Streptavidin-coated magnetic beads were treated with biotinylated small molecule ligands for 30 minutes at room temperature to generate affinity resins for kinase assays. The liganded beads were blocked with excess biotin and washed with blocking buffer (SeaBlock (Pierce), 1% BSA, 0.05% Tween 20, 1 mM DTT) to remove unbound ligand and to reduce non-specific binding. […] All reactions were performed in polystyrene 96-well plates in a final volume of 0.135 ml. […] The kinase concentration in the eluates was measured by qPCR. […]
Most Kd were determined using a compound top concentration=30,000 nM. […] Binding constants (Kds) were calculated with a standard dose-response curve using the Hill equation: Response=Background+(Signal−Background)/[1+(Kd^Hill slope/Dose^Hill Slope)]. […]

Chain of CDK7/cyclinH1/MNAT1 (P50613 whole entry): as above
Chain of CDK7/cyclinH1/MNAT1 (P51946 whole entry partner): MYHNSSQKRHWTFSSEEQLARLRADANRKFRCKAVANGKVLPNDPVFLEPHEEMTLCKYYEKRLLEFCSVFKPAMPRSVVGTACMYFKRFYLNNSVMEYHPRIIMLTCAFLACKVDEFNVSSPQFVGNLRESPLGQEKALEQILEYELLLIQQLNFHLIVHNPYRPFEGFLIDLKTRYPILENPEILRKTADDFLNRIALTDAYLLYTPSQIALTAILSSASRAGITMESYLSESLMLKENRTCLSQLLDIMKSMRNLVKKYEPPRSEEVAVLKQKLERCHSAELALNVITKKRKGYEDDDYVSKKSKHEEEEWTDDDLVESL
Chain of CDK7/cyclinH1/MNAT1 (P51948 whole entry partner): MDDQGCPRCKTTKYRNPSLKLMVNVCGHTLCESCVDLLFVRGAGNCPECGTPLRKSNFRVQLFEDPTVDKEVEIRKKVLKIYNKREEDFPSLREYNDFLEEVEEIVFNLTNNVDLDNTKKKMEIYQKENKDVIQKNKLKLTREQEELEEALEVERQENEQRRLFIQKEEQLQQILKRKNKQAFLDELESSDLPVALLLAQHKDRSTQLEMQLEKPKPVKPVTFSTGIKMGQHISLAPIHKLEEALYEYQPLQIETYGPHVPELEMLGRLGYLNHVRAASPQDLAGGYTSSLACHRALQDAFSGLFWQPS
Chain of CDK7/CycH/MAT1 (P50613 whole entry): as the sequence (P50613 whole entry) above
Chain of CDK7/CycH/MAT1 (P51946 whole entry partner): as the sequence (P51946 whole entry partner) above
Chain of CDK7/CycH/MAT1 (P51948 whole entry partner): as the sequence (P51948 whole entry partner) above

C=CC(=O)Nc1ccc(C(=O)Nc2cc3cc(c2)Nc2nccc(n2)-c2cccc(c2)OCC/C=C/CN(C)C3)cc1 [CY-16-1]
IC50 (CDK7/cyclinH1/MNAT1): < 0.015 µM | IC50 (DMS 114; Homo sapiens): 0.029 µM | IC50 (NCI-H69; Homo sapiens, NCI-H69, 72 h): 0.032 µM | IC50 (NCI-H69): 0.018 µM | IC50 (NCI-H209; Homo sapiens): 0.03 µM | IC50 (NCI-H82; Homo sapiens): 0.028 µM | IC50 (NCI-H446; Homo sapiens): 0.019 µM | Reversibility of CDK7 inhibition after dialysis (CDK7/CycH/MAT1): irreversible inhibitor of CDK7 | Kd (CDK7): < 0.001 µM

N.N.[Cl][Pt][Cl] [Cisplatin, reference compound]
IC50 (DMS 114): 5.95 µM | IC50 (NCI-H69): 7 µM and 7.7 µM | IC50 (NCI-H209): 0.274 µM | IC50 (NCI-H82): 4.51 µM | IC50 (NCI-H446): 7.45 µM
